One block for each compound: values may come before it. Calls of active or inactive are those of the source. The calls are words filed in the database; no cut-off is given here.
Tests used:
[1] = target: T1, 5-hydroxytryptamine receptor 6 (Homo sapiens, UniProt P50406); assay: Displacement of [3H]LSD from 5HT6 receptor expressed in HEK293 cells; format: cell-based
[2] = target: T1, 5-hydroxytryptamine receptor 6; assay: Displacement of [3H]LSD from 5HT6 receptor expressed in HEK293 cells at 10 uM; format: cell-based
[3] = target: T2, 5-hydroxytryptamine receptor 2C (Homo sapiens) (UniProt P28335); assay: Binding affinity at 5HT2C receptor at 1 uM
T2 sequence (whole entry): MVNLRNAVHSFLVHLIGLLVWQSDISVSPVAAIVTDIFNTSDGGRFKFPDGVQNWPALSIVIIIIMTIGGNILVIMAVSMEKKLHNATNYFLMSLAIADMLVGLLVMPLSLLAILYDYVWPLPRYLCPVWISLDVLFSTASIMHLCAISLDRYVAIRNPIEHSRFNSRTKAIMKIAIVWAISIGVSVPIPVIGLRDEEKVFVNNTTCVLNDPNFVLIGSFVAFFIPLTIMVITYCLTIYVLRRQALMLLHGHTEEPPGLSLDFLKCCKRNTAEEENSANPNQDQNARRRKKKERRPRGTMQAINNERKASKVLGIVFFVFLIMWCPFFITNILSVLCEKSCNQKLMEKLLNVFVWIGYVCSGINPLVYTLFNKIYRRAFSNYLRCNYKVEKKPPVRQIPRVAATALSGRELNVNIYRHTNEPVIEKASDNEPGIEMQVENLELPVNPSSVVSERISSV

[4] = target: T3, 5-hydroxytryptamine receptor 2A (Homo sapiens, UniProt P28223); assay: Binding affinity at 5HT2A receptor at 1 uM
T3 sequence (P28223 whole entry): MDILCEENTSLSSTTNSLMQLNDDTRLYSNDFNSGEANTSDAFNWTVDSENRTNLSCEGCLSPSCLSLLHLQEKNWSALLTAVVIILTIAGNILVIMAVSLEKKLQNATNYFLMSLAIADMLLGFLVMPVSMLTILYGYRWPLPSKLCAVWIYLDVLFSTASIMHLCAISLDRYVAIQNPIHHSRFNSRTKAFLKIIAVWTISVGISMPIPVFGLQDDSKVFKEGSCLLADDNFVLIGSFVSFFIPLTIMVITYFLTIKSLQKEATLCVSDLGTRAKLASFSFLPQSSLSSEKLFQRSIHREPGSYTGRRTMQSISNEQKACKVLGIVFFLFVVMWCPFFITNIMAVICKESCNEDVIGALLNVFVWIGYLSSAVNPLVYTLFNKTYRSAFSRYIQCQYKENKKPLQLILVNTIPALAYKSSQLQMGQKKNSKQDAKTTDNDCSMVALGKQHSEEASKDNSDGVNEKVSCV

[5] = target: Histamine H1 receptor (Homo sapiens) (UniProt P35367); assay: Binding affinity at histamine H1 receptor at 1 uM
Sequence of Histamine H1 receptor (Homo sapiens) (P35367 whole entry): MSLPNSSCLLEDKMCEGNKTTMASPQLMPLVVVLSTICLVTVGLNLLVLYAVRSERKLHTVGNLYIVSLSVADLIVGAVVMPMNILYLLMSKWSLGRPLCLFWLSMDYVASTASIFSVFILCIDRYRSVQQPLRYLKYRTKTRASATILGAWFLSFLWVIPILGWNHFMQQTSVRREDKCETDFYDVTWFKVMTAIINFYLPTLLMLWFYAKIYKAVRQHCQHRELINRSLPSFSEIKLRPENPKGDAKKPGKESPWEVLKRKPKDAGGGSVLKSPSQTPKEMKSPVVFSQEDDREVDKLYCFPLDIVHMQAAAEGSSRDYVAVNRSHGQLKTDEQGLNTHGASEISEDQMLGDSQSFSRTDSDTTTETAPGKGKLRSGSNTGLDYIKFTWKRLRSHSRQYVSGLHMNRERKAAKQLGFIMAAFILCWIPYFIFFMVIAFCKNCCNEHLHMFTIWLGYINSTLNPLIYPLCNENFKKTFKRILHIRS

[6] = target: 5-hydroxytryptamine receptor 7 (Homo sapiens) (UniProt P34969); assay: Binding affinity at 5HT7 receptor at 1 uM
Sequence of 5-hydroxytryptamine receptor 7 (Homo sapiens) (P34969 whole entry): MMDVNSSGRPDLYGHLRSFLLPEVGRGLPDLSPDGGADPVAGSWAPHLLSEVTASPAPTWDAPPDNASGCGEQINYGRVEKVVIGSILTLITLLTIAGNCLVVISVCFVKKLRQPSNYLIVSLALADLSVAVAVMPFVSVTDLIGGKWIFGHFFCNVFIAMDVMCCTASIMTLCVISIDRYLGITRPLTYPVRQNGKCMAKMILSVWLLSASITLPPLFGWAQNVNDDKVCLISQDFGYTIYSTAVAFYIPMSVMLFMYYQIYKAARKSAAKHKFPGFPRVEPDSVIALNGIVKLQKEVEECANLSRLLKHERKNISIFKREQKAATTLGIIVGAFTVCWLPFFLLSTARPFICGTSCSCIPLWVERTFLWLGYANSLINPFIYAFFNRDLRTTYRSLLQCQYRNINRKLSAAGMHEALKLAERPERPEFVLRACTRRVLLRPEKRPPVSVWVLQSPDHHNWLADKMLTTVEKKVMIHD

[7] = target: 5-hydroxytryptamine receptor 2B (Homo sapiens) (UniProt P41595); assay: Binding affinity at 5HT2B receptor at 1 uM
Sequence of 5-hydroxytryptamine receptor 2B (Homo sapiens) (P41595 whole entry): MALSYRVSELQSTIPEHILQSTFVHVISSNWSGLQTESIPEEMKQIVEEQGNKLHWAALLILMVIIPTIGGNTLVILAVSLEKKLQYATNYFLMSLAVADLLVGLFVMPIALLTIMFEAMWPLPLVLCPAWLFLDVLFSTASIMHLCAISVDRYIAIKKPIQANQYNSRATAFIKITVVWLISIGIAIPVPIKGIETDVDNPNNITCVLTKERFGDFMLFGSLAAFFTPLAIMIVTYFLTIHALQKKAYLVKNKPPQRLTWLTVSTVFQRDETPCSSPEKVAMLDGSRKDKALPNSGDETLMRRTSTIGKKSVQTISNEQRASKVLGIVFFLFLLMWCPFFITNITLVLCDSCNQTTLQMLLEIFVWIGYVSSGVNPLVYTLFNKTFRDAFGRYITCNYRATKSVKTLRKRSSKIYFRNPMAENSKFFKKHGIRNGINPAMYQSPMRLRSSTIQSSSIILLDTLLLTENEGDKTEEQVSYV

[8] = target: T3, 5-hydroxytryptamine receptor 2A; assay: Binding affinity at 5HT2A receptor
[9] = target: T4, 5-hydroxytryptamine receptor 3A (Homo sapiens) (UniProt P46098); assay: Inhibition of 5HT3 receptor at 10 uM
T4 sequence (whole entry): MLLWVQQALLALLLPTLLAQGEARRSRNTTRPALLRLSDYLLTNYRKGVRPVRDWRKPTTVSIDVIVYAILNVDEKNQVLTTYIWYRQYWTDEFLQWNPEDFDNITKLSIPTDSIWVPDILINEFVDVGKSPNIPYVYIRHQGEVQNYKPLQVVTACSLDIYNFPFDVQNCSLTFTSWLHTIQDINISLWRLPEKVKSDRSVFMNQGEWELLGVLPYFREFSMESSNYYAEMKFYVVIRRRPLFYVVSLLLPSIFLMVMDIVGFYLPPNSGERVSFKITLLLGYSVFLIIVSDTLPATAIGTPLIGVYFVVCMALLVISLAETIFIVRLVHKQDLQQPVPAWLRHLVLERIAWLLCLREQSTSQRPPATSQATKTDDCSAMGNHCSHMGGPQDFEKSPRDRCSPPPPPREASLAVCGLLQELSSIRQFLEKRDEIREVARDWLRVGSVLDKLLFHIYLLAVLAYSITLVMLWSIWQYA

[10] = target: T2, 5-hydroxytryptamine receptor 2C (Homo sapiens); assay: Inhibition of 5HT2C receptor at 10 uM
[11] = target: Sodium-dependent serotonin transporter (Homo sapiens) (UniProt P31645); assay: Inhibition of SERT at 10 uM
Sequence of Sodium-dependent serotonin transporter (Homo sapiens) (P31645 whole entry, looked up): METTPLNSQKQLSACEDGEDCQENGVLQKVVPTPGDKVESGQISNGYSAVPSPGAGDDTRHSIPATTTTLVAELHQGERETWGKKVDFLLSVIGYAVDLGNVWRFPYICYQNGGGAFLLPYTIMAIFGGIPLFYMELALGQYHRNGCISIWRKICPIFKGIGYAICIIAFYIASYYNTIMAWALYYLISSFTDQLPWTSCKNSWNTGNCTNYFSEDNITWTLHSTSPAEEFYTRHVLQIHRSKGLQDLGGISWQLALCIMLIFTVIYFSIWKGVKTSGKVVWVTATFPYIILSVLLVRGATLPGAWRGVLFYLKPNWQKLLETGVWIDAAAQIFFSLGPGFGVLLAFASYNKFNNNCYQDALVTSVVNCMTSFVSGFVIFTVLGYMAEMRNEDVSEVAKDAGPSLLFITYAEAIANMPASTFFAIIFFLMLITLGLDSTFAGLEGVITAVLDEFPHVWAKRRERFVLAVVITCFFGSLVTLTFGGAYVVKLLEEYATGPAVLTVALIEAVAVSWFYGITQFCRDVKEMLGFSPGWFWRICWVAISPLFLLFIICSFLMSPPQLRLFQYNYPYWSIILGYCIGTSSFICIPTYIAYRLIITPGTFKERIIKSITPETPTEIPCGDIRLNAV

[12] = target: 5-hydroxytryptamine receptor 2B (Homo sapiens) (UniProt P41595); assay: Inhibition of 5HT2B receptor at 10 uM
[13] = target: 5-hydroxytryptamine receptor 5A (Homo sapiens) (UniProt P47898); assay: Inhibition of 5HT5A receptor at 10 uM
Sequence of 5-hydroxytryptamine receptor 5A (Homo sapiens) (P47898 whole entry): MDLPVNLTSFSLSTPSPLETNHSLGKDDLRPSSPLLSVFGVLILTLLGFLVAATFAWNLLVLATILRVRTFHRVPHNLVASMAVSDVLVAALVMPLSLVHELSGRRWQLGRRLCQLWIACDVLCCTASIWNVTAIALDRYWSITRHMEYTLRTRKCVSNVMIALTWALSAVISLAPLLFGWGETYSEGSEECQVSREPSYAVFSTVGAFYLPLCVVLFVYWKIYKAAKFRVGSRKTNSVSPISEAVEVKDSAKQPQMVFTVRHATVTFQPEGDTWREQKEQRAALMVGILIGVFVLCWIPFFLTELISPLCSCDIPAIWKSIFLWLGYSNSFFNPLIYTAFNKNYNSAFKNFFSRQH

[14] = target: Histamine H1 receptor (Homo sapiens) (UniProt P35367); assay: Inhibition of histamine H1 receptor at 10 uM
[15] = target: 5-hydroxytryptamine receptor 7 (Homo sapiens) (UniProt P34969); assay: Inhibition of 5HT7 receptor at 10 uM
[16] = target: T5, 5-hydroxytryptamine receptor 1A (Homo sapiens) (UniProt P08908); assay: Inhibition of 5HT1A receptor at 10 uM
T5 sequence (whole entry): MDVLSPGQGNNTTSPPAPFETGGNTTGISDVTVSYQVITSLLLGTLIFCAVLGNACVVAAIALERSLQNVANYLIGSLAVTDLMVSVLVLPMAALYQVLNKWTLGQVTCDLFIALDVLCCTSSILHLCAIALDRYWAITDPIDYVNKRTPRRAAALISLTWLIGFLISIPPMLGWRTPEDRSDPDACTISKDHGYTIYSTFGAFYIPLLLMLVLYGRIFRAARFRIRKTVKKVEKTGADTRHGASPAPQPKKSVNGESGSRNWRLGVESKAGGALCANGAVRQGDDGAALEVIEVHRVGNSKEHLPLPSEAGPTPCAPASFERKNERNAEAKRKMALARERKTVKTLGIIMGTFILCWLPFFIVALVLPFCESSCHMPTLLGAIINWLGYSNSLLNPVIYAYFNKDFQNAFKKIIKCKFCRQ

[17] = target: 5-hydroxytryptamine receptor 1B (Homo sapiens) (UniProt P28222); assay: Inhibition of 5HT1B receptor at 10 uM
Sequence of 5-hydroxytryptamine receptor 1B (Homo sapiens) (P28222 whole entry): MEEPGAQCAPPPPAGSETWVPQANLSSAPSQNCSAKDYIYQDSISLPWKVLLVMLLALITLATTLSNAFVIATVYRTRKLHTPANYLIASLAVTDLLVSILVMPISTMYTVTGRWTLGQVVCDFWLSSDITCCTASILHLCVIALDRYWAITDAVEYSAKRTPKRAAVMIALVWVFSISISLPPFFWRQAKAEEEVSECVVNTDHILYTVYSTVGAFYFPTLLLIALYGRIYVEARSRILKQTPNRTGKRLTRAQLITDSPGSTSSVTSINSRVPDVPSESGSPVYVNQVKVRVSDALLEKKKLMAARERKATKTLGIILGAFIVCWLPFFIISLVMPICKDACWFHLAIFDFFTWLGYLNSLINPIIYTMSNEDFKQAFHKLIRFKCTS

[18] = target: 5-hydroxytryptamine receptor 4 (Homo sapiens) (UniProt Q13639); assay: Inhibition of 5HT4 receptor at 10 uM
Sequence of 5-hydroxytryptamine receptor 4 (Homo sapiens) (Q13639 whole entry): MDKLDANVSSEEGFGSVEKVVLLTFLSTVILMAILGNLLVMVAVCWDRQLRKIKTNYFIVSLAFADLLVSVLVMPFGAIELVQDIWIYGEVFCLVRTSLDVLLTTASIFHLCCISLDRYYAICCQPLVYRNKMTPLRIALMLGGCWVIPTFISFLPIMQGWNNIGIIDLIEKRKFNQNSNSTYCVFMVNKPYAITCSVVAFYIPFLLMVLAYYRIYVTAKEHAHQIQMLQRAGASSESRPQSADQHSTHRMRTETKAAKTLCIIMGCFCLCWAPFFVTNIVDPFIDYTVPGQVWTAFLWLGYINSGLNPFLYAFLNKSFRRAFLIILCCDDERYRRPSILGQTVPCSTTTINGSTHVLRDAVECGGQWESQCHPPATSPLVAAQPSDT

[19] = target: D(3) dopamine receptor (Homo sapiens) (UniProt P35462); assay: Inhibition of dopamine D3 receptor at 10 uM
Sequence of D(3) dopamine receptor (Homo sapiens) (P35462 whole entry): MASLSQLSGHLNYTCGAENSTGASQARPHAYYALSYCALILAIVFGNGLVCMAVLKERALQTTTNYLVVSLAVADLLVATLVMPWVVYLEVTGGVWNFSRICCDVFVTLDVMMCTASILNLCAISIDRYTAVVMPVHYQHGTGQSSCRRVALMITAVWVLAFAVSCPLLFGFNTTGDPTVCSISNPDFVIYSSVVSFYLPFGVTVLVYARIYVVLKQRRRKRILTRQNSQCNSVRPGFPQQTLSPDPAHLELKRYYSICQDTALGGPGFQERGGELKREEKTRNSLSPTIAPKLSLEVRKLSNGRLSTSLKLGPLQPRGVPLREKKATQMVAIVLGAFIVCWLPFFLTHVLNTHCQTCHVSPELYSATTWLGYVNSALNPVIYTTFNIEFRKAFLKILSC

T1 sequence (P50406 whole entry): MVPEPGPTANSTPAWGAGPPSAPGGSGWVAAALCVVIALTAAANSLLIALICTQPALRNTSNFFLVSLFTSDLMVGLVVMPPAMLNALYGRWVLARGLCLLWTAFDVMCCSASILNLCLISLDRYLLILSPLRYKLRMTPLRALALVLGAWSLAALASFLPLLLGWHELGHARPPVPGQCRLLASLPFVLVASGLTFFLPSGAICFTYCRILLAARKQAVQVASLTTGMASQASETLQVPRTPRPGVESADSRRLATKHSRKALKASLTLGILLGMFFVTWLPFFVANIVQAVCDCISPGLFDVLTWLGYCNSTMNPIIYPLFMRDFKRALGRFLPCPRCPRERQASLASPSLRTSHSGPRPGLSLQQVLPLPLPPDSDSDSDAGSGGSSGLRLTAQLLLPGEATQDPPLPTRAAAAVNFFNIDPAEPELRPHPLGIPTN

Ki [1]: 1010 nM
SMILES: COc1ccc(N2CCN(C)CC2)cc1NCCc1ccccc1

SMILES: CN1CCN(c2ccc([N+](=O)[O-])c(NCc3ccccc3)c2)CC1
Activity [2]: 74%

inhibition [3]: 14%
inhibition [4]: 61%
inhibition [5]: 2%
inhibition [6]: 6%
inhibition [7]: 63%
SMILES: CN1CCN(c2ccc(NS(=O)(=O)c3ccccc3)c(NCc3ccccc3)c2)CC1

Activity [2]: 49%
SMILES: COc1cc(N2CCN(C)CC2)ccc1NCc1ccccc1

SMILES: CN1CCN(c2ccc([N+](=O)[O-])c(-n3ncccc3=O)c2)CC1
Activity [2]: 24%

Activity [2]: 59%
SMILES: COc1ccc(CCNc2cc(N3CCNCC3)ccc2[N+](=O)[O-])cc1OC

inhibition [3]: 72%
inhibition [5]: 65%
Ki [8]: 47 nM
inhibition [6]: 52%
inhibition [7]: 68%
SMILES: CN1CCN(c2ccc(C#N)c(NCc3ccccc3)c2)CC1

Activity [2]: 64%
SMILES: CN1CCN(c2ccc(NCc3ccccc3)c([N+](=O)[O-])c2)CC1

SMILES: CN1CCN(c2ccc(C#N)c(NCc3ccco3)c2)CC1
Ki [1]: 1360 nM

Ki [1]: 1220 nM
SMILES: CN1CCN(c2ccc([N+](=O)[O-])c(-n3nc(-c4ccccc4)c4ccccc4c3=O)c2)CC1

SMILES: CN1CCN(c2ccc([N+](=O)[O-])c(Oc3ccccc3)c2)CC1
Ki [1]: 27 nM

Activity [2]: 49%
SMILES: CN1CCN(c2ccc(C(=O)O)c(NCc3ccccc3)c2)CC1

Activity [2]: 21%
SMILES: CN1CCN(c2ccc([N+](=O)[O-])c(NCCOc3ccc(Cl)cc3)c2)CC1

Activity [2]: 78%
SMILES: CN1CCN(c2ccc([N+](=O)[O-])c(NCCn3cccc3)c2)CC1

Activity [2]: 37%
SMILES: CN1CCN(c2ccc(NCc3ccccc3)c(C(=O)O)c2)CC1

Activity [2]: 67%
SMILES: Cc1ccc(OCCNc2cc(N3CCN(C)CC3)ccc2[N+](=O)[O-])cc1C

Activity [2]: 24%
SMILES: COc1ccc(CCNc2cc(N3CCN(C)CC3)ccc2[N+](=O)[O-])cc1OC

Ki [1]: 28 nM
SMILES: O=[N+]([O-])c1ccc(N2CCNCC2)cc1NCc1ccccc1

Ki [1]: 1490 nM
SMILES: NCCNc1ccc([N+](=O)[O-])c(NCc2ccccc2)c1

Ki [1]: 928 nM
SMILES: CN1CCN(c2ccc(OCc3ccccc3)c(NCc3ccccc3)c2)CC1

Ki [1]: 8 nM
SMILES: O=[N+]([O-])c1ccc(N2CCNCC2)cc1NCc1ccc(Cl)cc1

Activity [2]: 10%
SMILES: Cc1cccc(OCCNc2cc(N3CCN(C)CC3)ccc2[N+](=O)[O-])c1

Activity [1]: inactive
SMILES: CN1CCN(c2ccc(C(=O)O)c(NCc3ccco3)c2)CC1

Ki ([1]; hek293): 119 nM
SMILES: CN1CCN(c2ccc([N+](=O)[O-])c(NCCc3ccccc3)c2)CC1

Activity [2]: 72%
SMILES: COC(=O)c1ccc(N2CCN(C)CC2)cc1NCc1ccccc1

Activity [2]: 49%
SMILES: CN1CCN(c2ccc([N+](=O)[O-])c(N(C)C(=O)c3ccccc3)c2)CC1

Activity [1]: inactive
SMILES: CN1CCN(c2ccc(C(=O)O)c(NCCc3ccccc3)c2)CC1

SMILES: COc1ccc(N2CCN(C)CC2)cc1NCc1ccco1
Activity [2]: 53%

SMILES: CN(C)CCc1c[nH]c2ccc(NS(=O)(=O)c3ccc4c(Cl)cccc4c3)cc12
Ki [1]: 0.7 nM

Ki [1]: 1890 nM
SMILES: COC(=O)c1cc(N2CCN(C)CC2)ccc1NCc1ccccc1

Activity [2]: 22%
SMILES: COc1cccc(OCCNc2cc(N3CCN(C)CC3)ccc2[N+](=O)[O-])c1

Activity [2]: 13%
SMILES: CC(Nc1cc(N2CCNCC2)ccc1[N+](=O)[O-])c1ccccc1 (centres undefined)

SMILES: COC(=O)c1ccc(N2CCN(C)CC2)cc1NCc1ccco1
Activity [2]: 31%

Activity [1]: inactive
SMILES: CC(=O)Nc1cc(N2CCN(C)CC2)ccc1N(Cc1ccccc1)C(C)=O

SMILES: CN1CCN(c2ccc([N+](=O)[O-])c(NC(=O)c3ccccc3)c2)CC1
Activity [1]: inactive

SMILES: CN1CCN(c2ccc([N+](=O)[O-])c(NCc3ccco3)c2)CC1
inhibition [9]: < 40%
inhibition [10]: > 90%
inhibition [11]: > 90%
inhibition [12]: > 90%
inhibition [13]: < 40%
inhibition [14]: > 90%
inhibition [15]: 61%
inhibition [16]: 61%
inhibition [17]: 61%
inhibition [18]: < 40%
inhibition [19]: > 90%

— ChEMBL document CHEMBL1140533, “Discovery of 5-HT6 receptor ligands based on virtual HTS” (Bioorg Med Chem Lett, 2007)
